Experimental data as given in patent US11076594B2, “Pyrazolone compound or salt thereof, preparation method therefor, herbicide composition and use thereof” (QINGDAO KINGAGROOT CHEMICAL COMPOUNDS CO., LTD., priority 2015, dated 2021).

Legend:
Format in all cases: in vivo
Conditions in all cases: post-emergence spray at 4-5 leaf stage, 250 g/ha active ingredient with 450 kg/ha water, rated after 3 weeks in greenhouse
rice = assay: post-emergence stage experiment, crop (Table 1); parameters: key: Level 10: completely dead; Level 9: above 95% growth control rate; Level 8: above 90% growth control rate; Level 7: above 80% growth control rate; Level 6: above 70% growth control rate; Level 5: above 60% growth control rate; Level 4: above 50% growth control rate; Level 3: above 20% growth control rate; Level 2: 5%-20% growth control rate; Level 1: below 5% growth control rate
Outline: (§1)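 Greenhouse pot test; foliar spray at 4-5 leaf stage; acetone + Tween 80 + water formulation; 3 wk post-treatment fresh-weight control rate.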

foxtail = assay: weed control effect in post-emergence stage (Table 1); parameters: key: Level 10: completely dead; Level 9: above 95% growth control rate; Level 8: above 90% growth control rate; Level 7: above 80% growth control rate; Level 6: above 70% growth control rate; Level 5: above 60% growth control rate; Level 4: above 50% growth control rate; Level 3: above 20% growth control rate; Level 2: 5%-20% growth control rate; Level 1: below 5% growth control rate
Outline: as §1

echinochloa = assay: as above; parameters: key: Level 10: completely dead; Level 9: above 95% growth control rate; Level 8: above 90% growth control rate; Level 7: above 80% growth control rate; Level 6: above 70% growth control rate; Level 5: above 60% growth control rate; Level 4: above 50% growth control rate; Level 3: above 20% growth control rate; Level 2: 5%-20% growth control rate; Level 1: below 5% growth control rate
Outline: as §1

Indian mallow = assay: as above; parameters: key: Level 10: completely dead; Level 9: above 95% growth control rate; Level 8: above 90% growth control rate; Level 7: above 80% growth control rate; Level 6: above 70% growth control rate; Level 5: above 60% growth control rate; Level 4: above 50% growth control rate; Level 3: above 20% growth control rate; Level 2: 5%-20% growth control rate; Level 1: below 5% growth control rate
Outline: as §1

rorippa indica = assay: as above; parameters: key: Level 10: completely dead; Level 9: above 95% growth control rate; Level 8: above 90% growth control rate; Level 7: above 80% growth control rate; Level 6: above 70% growth control rate; Level 5: above 60% growth control rate; Level 4: above 50% growth control rate; Level 3: above 20% growth control rate; Level 2: 5%-20% growth control rate; Level 1: below 5% growth control rate
Outline: as §1

bidens bipinnata = assay: as above; parameters: key: Level 10: completely dead; Level 9: above 95% growth control rate; Level 8: above 90% growth control rate; Level 7: above 80% growth control rate; Level 6: above 70% growth control rate; Level 5: above 60% growth control rate; Level 4: above 50% growth control rate; Level 3: above 20% growth control rate; Level 2: 5%-20% growth control rate; Level 1: below 5% growth control rate
Outline: as §1

crab grass = assay: as above; parameters: key: Level 10: completely dead; Level 9: above 95% growth control rate; Level 8: above 90% growth control rate; Level 7: above 80% growth control rate; Level 6: above 70% growth control rate; Level 5: above 60% growth control rate; Level 4: above 50% growth control rate; Level 3: above 20% growth control rate; Level 2: 5%-20% growth control rate; Level 1: below 5% growth control rate
Outline: as §1

wheat = assay: post-emergence stage experiment, crop (Table 1)
Outline: as §1

corn = assay: post-emergence stage experiment, crop (Table 1)
Outline: as §1

| SMILES | effect on crop, Rice (level) (rice) | weed control effect, Green foxtail (level) (foxtail) | weed control effect, Echinochloa (level) (echinochloa) | weed control effect, Indian mallow (level) (Indian mallow) | weed control effect, Rorippa indica (level) (rorippa indica) | weed control effect, Bidens bipinnata (level) (bidens bipinnata) | weed control effect, Crab grass (level) (crab grass) | effect on crop, Wheat (level) (wheat) | effect on crop, Corn (level) (corn) |
| --- | --- | --- | --- | --- | --- | --- | --- | --- | --- |
| CCn1nc(C2CC2)c(C(=O)c2ccc(C(F)(F)F)c(-n3cc(C)cn3)c2Cl)c1O [Compound 144] | 8 (Level 8: above 90% growth control rate) | 9 (Level 9: above 95% growth control rate) | 10 | 10 | 2 (Level 2: 5%-20% growth control rate) | 10 | 2 (Level 2: 5%-20% growth control rate) | 0 | 0 |
| CCc1nn(CC)c(O)c1C(=O)c1ccc(C(F)(F)F)c(N2CCCCC2=O)c1Cl [Compound 112] | 7 (Level 7: above 80% growth control rate) | 5 (Level 5: above 60% growth control rate) | 10 | 5 (Level 5: above 60% growth control rate) | 2 (Level 2: 5%-20% growth control rate) | 1 (Level 1: below 5% growth control rate) | 6 (Level 6: above 70% growth control rate) | 3 (Level 3: above 20% growth control rate) | 3 (Level 3: above 20% growth control rate) |
| Cn1ncc(C(=O)c2ccc(C(F)(F)F)c(N3CCCCCC3=O)c2Cl)c1O [Compound 050] | 0 | 7 (Level 7: above 80% growth control rate) | 2 (Level 2: 5%-20% growth control rate) | 9 (Level 9: above 95% growth control rate) | 5 (Level 5: above 60% growth control rate) | 3 (Level 3: above 20% growth control rate) | 3 (Level 3: above 20% growth control rate) | 0 | 3 (Level 3: above 20% growth control rate) |
| CC(=O)Oc1c(C(=O)c2ccc(C(F)(F)F)c(N3CCCCC3=O)c2Cl)cnn1C [Compound 030] | 1 (Level 1: below 5% growth control rate) | 9 (Level 9: above 95% growth control rate) | 5 (Level 5: above 60% growth control rate) | 6 (Level 6: above 70% growth control rate) | 10 | 5 (Level 5: above 60% growth control rate) | 8 (Level 8: above 90% growth control rate) | 4 (Level 4: above 50% growth control rate) | 9 (Level 9: above 95% growth control rate) |
| Cn1ncc(C(=O)c2ccc(C(F)(F)F)c(-n3cccn3)c2Cl)c1O [Compound 064] | 2 (Level 2: 5%-20% growth control rate) | 10 | 5 (Level 5: above 60% growth control rate) | 10 | 9 (Level 9: above 95% growth control rate) | 7 (Level 7: above 80% growth control rate) | 7 (Level 7: above 80% growth control rate) | 3 (Level 3: above 20% growth control rate) | 7 (Level 7: above 80% growth control rate) |
| CCS(=O)(=O)Oc1c(C(=O)c2ccc(C(F)(F)F)c(N3CCCCC3=O)c2Cl)cnn1C [Compound 031] | 1 (Level 1: below 5% growth control rate) | 10 | 5 (Level 5: above 60% growth control rate) | 7 (Level 7: above 80% growth control rate) | 8 (Level 8: above 90% growth control rate) | 6 (Level 6: above 70% growth control rate) | 9 (Level 9: above 95% growth control rate) | 3 (Level 3: above 20% growth control rate) | 9 (Level 9: above 95% growth control rate) |
| CCn1ncc(C(=O)c2ccc(C(F)(F)F)c(N3CCCCCC3=O)c2Cl)c1OC(=O)c1cn(C)nc1C [Compound 117] | 9 (Level 9: above 95% growth control rate) | 10 | 10 | 9 (Level 9: above 95% growth control rate) | 5 (Level 5: above 60% growth control rate) | 10 | 3 (Level 3: above 20% growth control rate) | 0 | 0 |
| CCc1nn(CC)c(O)c1C(=O)c1ccc(C(F)(F)F)c(-n2cccn2)c1Cl [Compound 132] | 5 (Level 5: above 60% growth control rate) | 10 | 9 (Level 9: above 95% growth control rate) | 5 (Level 5: above 60% growth control rate) | 0 | 5 (Level 5: above 60% growth control rate) | 3 (Level 3: above 20% growth control rate) | 1 (Level 1: below 5% growth control rate) | 0 |
| Cn1cc(C(=O)Oc2c(C(=O)c3ccc(C(F)(F)F)c(N4CCCCC4=O)c3Cl)cnn2C)cn1 [Compound 033] | 8 (Level 8: above 90% growth control rate) | 10 | 9 (Level 9: above 95% growth control rate) | 10 | 10 | 9 (Level 9: above 95% growth control rate) | 9 (Level 9: above 95% growth control rate) | 2 (Level 2: 5%-20% growth control rate) | 3 (Level 3: above 20% growth control rate) |
| CCc1nn(C)c(OC(=O)c2cn(C)nc2C)c1C(=O)c1ccc(C(F)(F)F)c(N2CCCC2=O)c1Cl [Compound 101] | 10 | 10 | 10 | 10 | 10 | 9 (Level 9: above 95% growth control rate) | 4 (Level 4: above 50% growth control rate) | 3 (Level 3: above 20% growth control rate) | 2 (Level 2: 5%-20% growth control rate) |
